Laboratory results taken from patent publication US7229979B2, “Hypoestoxides, derivatives and agonists thereof for use as stent-coating agents” (Immune Modulation, Inc., priority 2003, dated 2007).

Tested on: platelets (arachidonic acid-induced platelet aggregation)
Experiment: Arachidonic acid-induced platelet aggregation in platelet-rich plasma
Type: cell-based, New Zealand rabbit
Details: 30 μM; arachidonic acid 100 μM; rabbit platelet-rich plasma
Procedure: The inhibitory effect of hypoestoxides according to the present invention on platelet aggregation was studied. Platelet-rich plasma from a New Zealand rabbit was used as the source of platelets. Arachidonic acid (100 μM) was used to induce maximal platelet aggregation in vitro. Optical density of aggregation was measured by densitometry.

C=C1C(=O)C[C@H]2C[C@@H]3O[C@@]3(C)CC[C@@H]3O[C@@]3(C)C[C@@H](OC(C)=O)[C@H]1C2(C)C [Hypoestoxide, hypoestoxide]
% Inhibition of arachidonic acid-induced platelet aggregation: 100%
